Reference: ChEMBL document CHEMBL1201862, “PubChem BioAssay data set” (2004)
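1) Cells in 96-well plates. 2) Compound, 48 h, 5 concentrations. 3) Linear interpolation between surrounding doses. 4) Unreached endpoint = highest concentration. At the GI50, growth is halved.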 Activity calls are given as the source filed them. No stated cut-off is given here; in the data, active = GI50 up to about 1.1 µM and inactive = higher.

Tests used:
Experiment in all cases: NCI-60 cell line screen, 48 h
T47D = system: T47D
NCI-H522 = system: NCI-H522
UACC-62 = system: UACC-62
786-0 = system: 786-0
A498 = system: A498
M14 = system: M14
PC-3 = system: PC-3
SW-620 = system: SW-620
UO-31 = system: UO-31
TK-10 = system: TK-10
OVCAR-8 = system: OVCAR-8
KM12 = system: KM12
SNB-75 = system: SNB-75
RXF 393 = system: RXF 393
SNB-19 = system: SNB-19
HCT-116 = system: HCT-116
SR = system: SR
HOP-92 = system: HOP-92
ACHN = system: ACHN
MOLT-4 = system: MOLT-4

Structure (SMILES)	GI50 (T47D)	GI50 (NCI-H522)	GI50 (UACC-62)	GI50 (786-0)	GI50 (A498)	GI50 (M14)	GI50 (PC-3)	GI50 (SW-620)	GI50 (UO-31)	GI50 (TK-10)	GI50 (OVCAR-8)	GI50 (KM12)	GI50 (SNB-75)	GI50 (RXF 393)	GI50 (SNB-19)	GI50 (HCT-116)	GI50 (SR)	GI50 (HOP-92)	GI50 (ACHN)	GI50 (MOLT-4)
CC(C)(C)c1ccc(OCCOc2ccc(C(C)(C)C)cc2N)c(N)c1	25.6 µM (inactive)	11.4 µM (inactive)	> 100 µM (inactive)	29.9 µM (inactive)	18.3 µM (inactive)	> 100 µM (inactive)	> 100 µM (inactive)	> 100 µM (inactive)	> 100 µM (inactive)	69.3 µM (inactive)	29.9 µM (inactive)	> 100 µM (inactive)	47.8 µM (inactive)	> 100 µM (inactive)	> 100 µM (inactive)	> 100 µM (inactive)	> 100 µM (inactive)	17.4 µM (inactive)	60.1 µM (inactive)	> 100 µM (inactive)
CC1=CC[C@@]2(C)CC[C@](O)(C(C)C)C2C(OC(=O)c2ccccc2)C1 (some centres not stated)	20.1 µM (inactive)	16.5 µM (inactive)		18.5 µM (inactive)	24.4 µM (inactive)	18.7 µM (inactive)	18.7 µM (inactive)	22.3 µM (inactive)	17.3 µM (inactive)	18.3 µM (inactive)	19.4 µM (inactive)	18.4 µM (inactive)	17.5 µM (inactive)	12.7 µM (inactive)	20.7 µM (inactive)	17.3 µM (inactive)	31.7 µM (inactive)	15.1 µM (inactive)	17.8 µM (inactive)	17.1 µM (inactive)
CC(C)C[C@H](NC(=O)[C@H](CCc1ccccc1)NC(=O)c1ccc2ccccc2n1)B(O)O	< 0.01 µM (active)	< 0.0128 µM (active)	0.0973 µM (active)	< 0.0225 µM (active)	0.0471 µM (active)	< 0.0109 µM (active)	0.0731 µM (active)	< 0.01 µM (active)	0.0845 µM (active)	< 0.01 µM (active)	0.163 µM (active)	0.0644 µM (active)	0.0302 µM (active)	< 0.01 µM (active)		< 0.0122 µM (active)	< 0.0158 µM (active)	0.0329 µM (active)	< 0.01 µM (active)	< 0.01 µM (active)
O=C(Nc1ccccc1C(=O)O)C(=Cc1ccccc1O)NC(=O)c1ccccc1	49.1 µM (inactive)	> 100 µM (inactive)	> 100 µM (inactive)	> 100 µM (inactive)	> 100 µM (inactive)	> 100 µM (inactive)	> 100 µM (inactive)	> 100 µM (inactive)	> 100 µM (inactive)		> 100 µM (inactive)	> 100 µM (inactive)	> 100 µM (inactive)	> 100 µM (inactive)	> 100 µM (inactive)	> 100 µM (inactive)	> 100 µM (inactive)	> 100 µM (inactive)	> 100 µM (inactive)	> 100 µM (inactive)
